{"source": "paper PMC6492180", "about": "“Cytome micronucleus assays with a metabolically competent human derived liver cell line (Huh6): A promising approach for routine testing of chemicals?” (Environmental and Molecular Mutagenesis, 2018)", "key": {"Human lymphocytes": {"tested_on": "Human lymphocytes", "conditions": "cited from earlier work"}, "HepaRG": {"tested_on": "HepaRG", "conditions": "cited from earlier work"}, "Huh6 cells": {"tested_on": "Huh6 cells", "description": "All experiments were performed in duplicate.\n3.8–4.0 × 10^5 cells per well were seeded into 6‐well plates with 3 mL of RPMI (4% FBS) for 12 hr, then dilutions of stock solutions of the diagnostic mutagens were added for different time periods (4, 24, and 48 hr). In each experimental series solvent controls were included. Subsequently, the cells were washed twice with 3.0 mL medium. […] Finally, the cells were washed and trypsinised. Afterwards the cells were washed twice with 8.0 mL RPMI and collected on slides by cytocentrifugation (600 rpm, 5 min). The slides were air dried, fixed, and stained with DiffQuick according to the instructions of the manufacturer. For each experimental point, two cultures were tested per dose. From each culture ≥1,000 BN cells were evaluated under 400‐fold magnification (Nikon Photophot‐FXA, Tokyo, Japan). At least 2,000 binucleated cells were analyzed per dose for the determination of the different nuclear anomalies (MN, NBuds, and NBs).\nThe experiments were performed as described in the previous chapter. The cells were exposed only to one dose of the different mutagens and were cultivated after the seeding in 6‐well plates which contained 4% or 10% FBS in RPMI, respectively.\nData were evaluated by generalized linear model with Poisson counts. Chi‐square tests for overdispersion were applied. […] P values ≤0.05 were considered statistically significant.\n^150-60 000 cells were seeded in 6 well plates with 3 ml RPMI (4% FBS), subsequently different solutions of the test compound (dissolved in medium) were added. After treatment for different time periods, the cells was washed and processed as described in the Material and Method section. […] From each culture 1000 binoculated cells were evaluated. BN-MN – number of micronucleated cells; MN - total number of micronuclei; CBPI – cytokinesis-block proliferation index\n^1The experiments were conducted essentially as described in the footnote of Table S1A-I. *p≤0.05"}, "HepG2": {"tested_on": "HepG2", "conditions": "cited from earlier work"}, "[1]": {"conditions": "ref IARC (2018); cited from earlier work"}, "Hep3B": {"tested_on": "Hep3B", "conditions": "cited from earlier work"}, "[2]": {"conditions": "10% FBS, 24 hr treatment, 10 µg/ml"}}, "note": "Like-named read-outs stand apart in the source and are kept apart here. Marks after values point to notes of the source that are not given here.", "data": [{"molecule": "COS(C)(=O)=O", "note": "[MMS, Methyl methanesulfonate]", "values": [{"measurement": "Lowest effective concentration (LOEC) in micronucleus experiments", "setting": "Human lymphocytes; Human lymphocytes, ref Andreoli et al., 1999", "result": 15.4, "unit": "µg/mL"}, {"measurement": "Lowest effective concentration (LOEC) in micronucleus experiments", "setting": "Human lymphocytes; Human lymphocytes, ref Fowler et al., 2014", "result": 51.0, "unit": "µg/mL"}, {"measurement": "Lowest effective concentration (LOEC) in micronucleus experiments", "setting": "HepaRG; HepaRG, ref Josse et al., 2012", "result": "9.9 (Josse et al., 2012) μg/mL"}, {"measurement": "MN formation with the longer exposure time, treatment for 1 or 7 days (in words)", "setting": "HepaRG; HepaRG, ref Josse et al., 2012", "result": "no such effects"}, {"measurement": "MN effects after 24 hr (or longer) compared with 4 hr treatment (in words)", "setting": "Huh6 cells; 4% FBS", "result": "similar"}, {"measurement": "BN-MN (number of micronucleated cells)", "setting": "Huh6 cells; 4% FBS, 4hrs, 6 µg/ml", "result": "20.5 ± 3.5 ‰"}, {"measurement": "Bridges", "setting": "Huh6 cells; 4% FBS, 4hrs, 6 µg/ml", "result": "0.5 ± 0.7 ‰"}, {"measurement": "Buds", "setting": "Huh6 cells; 4% FBS, 4hrs, 6 µg/ml", "result": "20.5 ± 3.5 ‰"}, {"measurement": "CBPI", "setting": "Huh6 cells; 4% FBS, 4hrs, 6 µg/ml", "result": "1.9 ± 0.1"}, {"measurement": "MN (total number of micronuclei)", "setting": "Huh6 cells; 4% FBS, 4hrs, 6 µg/ml", "result": "21.0 ± 4.2 ‰"}, {"measurement": "BN-MN (number of micronucleated cells)", "setting": "Huh6 cells; 4% FBS, 4hrs, 10 µg/ml", "result": "32.5 ± 3.5* ‰"}, {"measurement": "Bridges", "setting": "Huh6 cells; 4% FBS, 4hrs, 10 µg/ml", "result": "3.5 ± 0.7 ‰"}, {"measurement": "Buds", "setting": "Huh6 cells; 4% FBS, 4hrs, 10 µg/ml", "result": "37.0 ± 4.2* ‰"}, {"measurement": "CBPI", "setting": "Huh6 cells; 4% FBS, 4hrs, 10 µg/ml", "result": "1.7 ± 0.1"}, {"measurement": "MN (total number of micronuclei)", "setting": "Huh6 cells; 4% FBS, 4hrs, 10 µg/ml", "result": "39.5 ± 0.7* ‰"}, {"measurement": "BN-MN (number of micronucleated cells)", "setting": "Huh6 cells; 4% FBS, 4hrs, 40 µg/ml", "result": "40.0 ± 7.1* ‰"}, {"measurement": "Bridges", "setting": "Huh6 cells; 4% FBS, 4hrs, 40 µg/ml", "result": "3.5 ± 2.1 ‰"}, {"measurement": "Buds", "setting": "Huh6 cells; 4% FBS, 4hrs, 40 µg/ml", "result": "42.0 ± 17.0* ‰"}, {"measurement": "CBPI", "setting": "Huh6 cells; 4% FBS, 4hrs, 40 µg/ml", "result": "1.5 ± 0.1"}, {"measurement": "MN (total number of micronuclei)", "setting": "Huh6 cells; 4% FBS, 4hrs, 40 µg/ml", "result": "50.5 ± 7.8 ‰"}, {"measurement": "BN-MN (number of micronucleated cells)", "setting": "Huh6 cells; 4% FBS, 24hrs, 0.4 µg/ml", "result": "16.5 ± 0.7 ‰"}, {"measurement": "Bridges", "setting": "Huh6 cells; 4% FBS, 24hrs, 0.4 µg/ml", "result": "0.5 ± 0.7 ‰"}, {"measurement": "Buds", "setting": "Huh6 cells; 4% FBS, 24hrs, 0.4 µg/ml", "result": "9.5 ± 0.7 ‰"}, {"measurement": "CBPI", "setting": "Huh6 cells; 4% FBS, 24hrs, 0.4 µg/ml", "result": "1.7 ± 0.0"}, {"measurement": "MN (total number of micronuclei)", "setting": "Huh6 cells; 4% FBS, 24hrs, 0.4 µg/ml", "result": "16.5 ± 0.7 ‰"}, {"measurement": "BN-MN (number of micronucleated cells)", "setting": "Huh6 cells; 4% FBS, 24hrs, 2 µg/ml", "result": "21.5 ± 2.1 ‰"}, {"measurement": "Bridges", "setting": "Huh6 cells; 4% FBS, 24hrs, 2 µg/ml", "result": "3.0 ± 0.0 ‰"}, {"measurement": "Buds", "setting": "Huh6 cells; 4% FBS, 24hrs, 2 µg/ml", "result": "17.5 ± 0.7 ‰"}, {"measurement": "CBPI", "setting": "Huh6 cells; 4% FBS, 24hrs, 2 µg/ml", "result": "1.7 ± 0.0"}, {"measurement": "MN (total number of micronuclei)", "setting": "Huh6 cells; 4% FBS, 24hrs, 2 µg/ml", "result": "23.5 ± 2.1 ‰"}, {"measurement": "BN-MN (number of micronucleated cells)", "setting": "Huh6 cells; 4% FBS, 24hrs, 10 µg/ml", "result": "29.5 ± 2.1* ‰"}, {"measurement": "Bridges", "setting": "Huh6 cells; 4% FBS, 24hrs, 10 µg/ml", "result": "8.0 ± 1.4 ‰"}, {"measurement": "Buds", "setting": "Huh6 cells; 4% FBS, 24hrs, 10 µg/ml", "result": "27.0 ± 1.4* ‰"}, {"measurement": "CBPI", "setting": "Huh6 cells; 4% FBS, 24hrs, 10 µg/ml", "result": "1.6 ± 0.0"}, {"measurement": "MN (total number of micronuclei)", "setting": "Huh6 cells; 4% FBS, 24hrs, 10 µg/ml", "result": "31.0 ± 2.8* ‰"}, {"measurement": "Change of MN rates after 48 hr treatment (in words)", "setting": "Huh6 cells; 4% FBS, 48 hr", "result": "slight decrease"}, {"measurement": "BN-MN (number of micronucleated cells)", "setting": "Huh6 cells; 4% FBS, 48hrs, 0.4 µg/ml", "result": "18.0 ± 1.4 ‰"}, {"measurement": "Bridges", "setting": "Huh6 cells; 4% FBS, 48hrs, 0.4 µg/ml", "result": "0.5 ± 0.7 ‰"}, {"measurement": "Buds", "setting": "Huh6 cells; 4% FBS, 48hrs, 0.4 µg/ml", "result": "19.0 ± 1.4 ‰"}, {"measurement": "CBPI", "setting": "Huh6 cells; 4% FBS, 48hrs, 0.4 µg/ml", "result": "1.8 ± 0.0"}, {"measurement": "MN (total number of micronuclei)", "setting": "Huh6 cells; 4% FBS, 48hrs, 0.4 µg/ml", "result": "20.0 ± 1.4 ‰"}, {"measurement": "BN-MN (number of micronucleated cells)", "setting": "Huh6 cells; 4% FBS, 48hrs, 2 µg/ml", "result": "20.5 ± 0.7 ‰"}, {"measurement": "Bridges", "setting": "Huh6 cells; 4% FBS, 48hrs, 2 µg/ml", "result": "2.5 ± 0.7 ‰"}, {"measurement": "Buds", "setting": "Huh6 cells; 4% FBS, 48hrs, 2 µg/ml", "result": "19.5 ± 0.7 ‰"}, {"measurement": "CBPI", "setting": "Huh6 cells; 4% FBS, 48hrs, 2 µg/ml", "result": "1.9 ± 0.0"}, {"measurement": "MN (total number of micronuclei)", "setting": "Huh6 cells; 4% FBS, 48hrs, 2 µg/ml", "result": "23.5 ± 0.7 ‰"}, {"measurement": "BN-MN (number of micronucleated cells)", "setting": "Huh6 cells; 4% FBS, 48hrs, 10 µg/ml", "result": "24.0 ± 2.8 ‰"}, {"measurement": "Bridges", "setting": "Huh6 cells; 4% FBS, 48hrs, 10 µg/ml", "result": "0.5 ± 0.7 ‰"}, {"measurement": "Buds", "setting": "Huh6 cells; 4% FBS, 48hrs, 10 µg/ml", "result": "27.0 ± 1.4 ‰"}, {"measurement": "CBPI", "setting": "Huh6 cells; 4% FBS, 48hrs, 10 µg/ml", "result": "1.7 ± 0.0"}, {"measurement": "MN (total number of micronuclei)", "setting": "Huh6 cells; 4% FBS, 48hrs, 10 µg/ml", "result": "25.5 ± 3.5 ‰"}, {"measurement": "BN-MN (number of micronucleated cells)", "setting": "Huh6 cells; [2]", "result": "27.5 ± 2.1*"}, {"measurement": "Bridges", "setting": "Huh6 cells; [2]", "result": "0.0 ± 0.0"}, {"measurement": "Buds", "setting": "Huh6 cells; [2]", "result": "20.0 ± 2.8"}, {"measurement": "CBPI", "setting": "Huh6 cells; [2]", "result": "1.8 ± 0.0"}, {"measurement": "MN (total number of micronuclei)", "setting": "Huh6 cells; [2]", "result": "30.0 ± 1.4*"}, {"measurement": "MN frequencies with 10% serum compared with 4% serum (in words)", "setting": "Huh6 cells; 24 hr treatment", "result": "not increased"}, {"measurement": "Lowest effective concentration (LOEC) in micronucleus experiments", "setting": "Huh6 cells; Huh6", "result": 10.0, "unit": "µg/mL"}, {"measurement": "MN induction after 28 hr compared with 1 hr exposure (in words)", "setting": "HepG2; HepG2, ref Natarajan and Darroudi (1991)", "result": "less pronounced effect"}, {"measurement": "Lowest effective concentration (LOEC) in micronucleus experiments", "setting": "HepG2; HepG2, ref Valentin‐Severin et al., 2003", "result": "11.0 (Valentin‐Severin et al., 2003) μg/mL"}, {"measurement": "IARC classification", "setting": "[1]", "result": "Methylation of DNA bases; causes gene mutations and CA; IARC: Group 2A"}]}, {"molecule": "Aflatoxin B1 [AFB1]", "values": [{"measurement": "Lowest effective concentration (LOEC) in micronucleus experiments", "setting": "Hep3B", "result": "0.5 (Majer et al., 2004) μM"}, {"measurement": "Lowest effective concentration (LOEC) in micronucleus experiments", "setting": "Human lymphocytes", "result": "0.1 + S9 (Miller et al., 1998) μM"}, {"measurement": "Lowest effective concentration (LOEC) in micronucleus experiments", "setting": "HepaRG", "result": "0.25 (Le Hegarat et al., 2010) μM"}, {"measurement": "MN formation with the longer exposure time, treatment for 1 or 7 days (in words)", "setting": "HepaRG", "result": "stronger effects"}, {"measurement": "Lowest effective concentration (LOEC) in micronucleus experiments", "setting": "Huh6 cells", "result": 10.0, "unit": "µM"}, {"measurement": "MN effects after 24 hr (or longer) compared with 4 hr treatment (in words)", "setting": "Huh6 cells", "result": "similar"}, {"measurement": "MN frequencies with 10% serum compared with 4% serum (in words)", "setting": "Huh6 cells", "result": "stronger effects"}, {"measurement": "Lowest effective concentration (LOEC) in micronucleus experiments", "setting": "HepG2", "result": "0.5 (Josse et al., 2012) μM"}]}]}
